The results in this text go back to ChEMBL document CHEMBL3217629, “Discovery of novel morpholinoquinoxalines as PI3K inhibitors by pharmacophore-based screening” (Medchemcomm, 2012).

pIC50: −log10 of the molar value.

Experiment [1] addresses Phosphatidylinositol 4,5-bisphosphate 3-kinase catalytic subunit alpha isoform (Homo sapiens, UniProt P42336). Description: Inhibition of recombinant human PI3Kalpha using diC8-PI(4,5)P2 as substrate after 3 hrs by fluorescence polarization method. On the technique in general: Fluorescence polarisation rises when a labelled molecule tumbles more slowly, as on binding a larger partner.

Experiment [2] has as its system HCT-116. Description: cells. The following applies: Homo sapiens, HCT-116, 72 h.
Experiment [3] concerns HL-60. Description: Cytotoxicity against human HL60 cells after 72 hrs by MTT assay. The note with it: HL-60, 72 h. Format: functional, cell-based. A general note: Formazan colour is commonly taken as a measure of viable cells.
Experiment [4] relates to PC-3. The experiment is described as follows: cells. The following applies: Homo sapiens, PC-3, 72 h.
Description: Cytotoxicity against human PC3 cells after 72 hrs by MTT assay
For experiment [5], the system named is A549. Description: Cytotoxicity against human A549 cells after 72 hrs by MTT assay. Format: functional, cell-based. The following applies: A549, 72 h.

For orientation: pIC50 means −log10 of the IC50, conventionally taken in molar units.

Phosphatidylinositol 4,5-bisphosphate 3-kinase catalytic subunit alpha isoform, sequence (P42336 whole entry, canonical isoform): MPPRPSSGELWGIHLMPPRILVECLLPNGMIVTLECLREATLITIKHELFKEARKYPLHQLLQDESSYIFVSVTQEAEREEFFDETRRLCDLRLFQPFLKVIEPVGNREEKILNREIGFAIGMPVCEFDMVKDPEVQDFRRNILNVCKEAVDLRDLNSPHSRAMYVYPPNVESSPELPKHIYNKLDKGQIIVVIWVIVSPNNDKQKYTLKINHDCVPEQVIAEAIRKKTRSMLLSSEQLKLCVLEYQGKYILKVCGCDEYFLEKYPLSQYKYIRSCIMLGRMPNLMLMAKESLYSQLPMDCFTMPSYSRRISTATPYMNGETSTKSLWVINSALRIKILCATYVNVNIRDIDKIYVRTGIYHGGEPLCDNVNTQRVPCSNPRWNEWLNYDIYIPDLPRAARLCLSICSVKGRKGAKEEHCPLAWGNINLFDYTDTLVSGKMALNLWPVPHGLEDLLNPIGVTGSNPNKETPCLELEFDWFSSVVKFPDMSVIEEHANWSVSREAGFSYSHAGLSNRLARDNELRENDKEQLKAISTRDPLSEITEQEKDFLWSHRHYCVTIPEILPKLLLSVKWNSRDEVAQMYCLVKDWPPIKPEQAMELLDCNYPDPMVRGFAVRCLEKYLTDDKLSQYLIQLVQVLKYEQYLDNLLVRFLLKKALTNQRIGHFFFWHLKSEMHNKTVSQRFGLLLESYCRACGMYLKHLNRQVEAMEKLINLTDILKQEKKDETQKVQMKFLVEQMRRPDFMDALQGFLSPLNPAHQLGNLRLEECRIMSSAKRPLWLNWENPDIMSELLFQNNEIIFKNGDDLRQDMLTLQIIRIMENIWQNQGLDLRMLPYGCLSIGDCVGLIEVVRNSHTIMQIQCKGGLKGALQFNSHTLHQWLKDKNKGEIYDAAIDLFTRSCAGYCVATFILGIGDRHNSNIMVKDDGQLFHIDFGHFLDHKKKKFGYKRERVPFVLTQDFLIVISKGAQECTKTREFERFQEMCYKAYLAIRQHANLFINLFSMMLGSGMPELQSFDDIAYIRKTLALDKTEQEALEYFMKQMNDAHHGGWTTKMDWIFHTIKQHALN

As to `Cc1ccc(S(=O)(=O)c2nc3ccccc3nc2N2CCOCC2)cc1`, the pIC50 in experiment [1] was 5.80; in experiment [2], 4.98; in experiment [3] it was 6.02; in experiment [4], 5.03; in experiment [5] it was 5.48.

Take `COc1ccc(S(=O)(=O)c2nc3ccccc3nc2N2CCOCC2)cc1`: the pIC50 in experiment [1] was 5.85; in experiment [2], less than 4.30; in experiment [3] it was 5.32; in experiment [4], 6.06; in experiment [5], 4.71.

As for `O=S(=O)(c1ccc(Br)cc1)c1nc2ccccc2nc1N1CCOCC1`, the pIC50 in experiment [1] was 5.54; in experiment [2], 4.46; in experiment [3], 5.47; in experiment [4], 4.59; in experiment [5], 5.18.

As for `O=S(=O)(c1ccc(F)cc1)c1nc2ccccc2nc1N1CCOCC1`, the pIC50 was 5.60 in experiment [1]; 5.44 in experiment [2]; 5.76 in experiment [3]; 5.47 in experiment [4]; 5.25 in experiment [5].

Take `c1ccc(Sc2nc3ccccc3nc2N2CCOCC2)cc1`: the pIC50 in experiment [1] was less than 4.30; in experiment [2], 4.34; in experiment [3] it was 5.29; in experiment [4], less than 4.30; in experiment [5], 5.14.

On to `O=S(=O)(c1ccccc1)c1nc2ccccc2nc1N1CCCCC1`, for which the pIC50 in experiment [1] was 4.66; in experiment [2], 5.19; in experiment [3] it was 4.57; in experiment [4], 4.57; in experiment [5] it was less than 4.30.
